Entries after “also recorded” stand apart in the source; their conditions may differ.
Legend:
[1] = target: T1, Phage T4 polynucleotide kinase (T4 PNK) (Enterobacteria phage T4, UniProt P06855); assay: PiColorLock 3'-phosphatase assay, phage T4 PNK; assay type: biochemical, bacteriophage T4
T1 construct: purchased Roche Diagnostics (Indianapolis, Ind.)
Description: (§1) To determine the specificity of A12B4C3 for human PNKP phosphatase activity, a number of closely related phosphatases such as the PNKP enzymes isolated from bacteriophage T4, Schizosaccharomyces pombe and mouse, as well as aprataxin, were examined.

[2] = target: T2, PP-1cγ (Homo sapiens, UniProt P36873); assay: PP-1cγ pNPP phosphatase assay; assay type: biochemical; conditions: concentration as high as 83.3 μM
T2 construct: made in house; host or cells: E. coli
Description: PP-1cγ and calcineurin activity was analyzed, using a colorimetric p-nitrophenol phosphate (pNPP) assay as previously described (33). The reaction were carried out in a 96-well microplate with a final volume of 60 μl containing 40 μl of pNPP assay buffer (50 mM Tris, pH 7.4, 0.1 mM EDTA, 30 mM MgCl2, 0.5 mM MnCl2, 1 mg/ml BSA, 0.2% β-mercaptoethanol), 0.03 μg PP-1cγ (specific activity>30 units per mg) or a catalytically equivalent quantity of calcineurin and 10 μl of 0.5 mM DNA 3′-phosphatase inhibitor sample in DMSO or 10 μl of 50 μM A12B4C3 sample in DMSO, or control solvent. After a 10-minute incubation at 37° C., 10 μl of 30 mM pNPP was added to each well and incubated for an additional of 60 minutes and 45 minutes for PP-1cγ and calcineurin, respectively.

[3] = tested on: A549 cells; assay: Cell proliferation (MTS) assay, compound alone; assay type: cell-based, human; conditions: 72 hours
Description: (§2) To determine the effect of the inhibition of PNKP by small molecule inhibitors on cell proliferation we used the CellTiter 96™ AQueous Non-Radioactive Cell Proliferation Assay (Promega, Madison Wis.), better known as the MTS assay. Approximately 2.5×10^3 A549 cells were plated in triplicate in a 96-well plate with different concentration of A12B4C3. After 72 hours, 20 μl of CellTiter 96 Aqueous One Solution Reagent was added to each well and cells were incubated for 4 more hours at 37° C. The absorbance recorded at 490 nm was used as the number of living cells in culture (FLUOstar Optima, BMG Labtechnologies).
(§3) A12B4C3 was first tested for inherent toxicity. Cytotoxicity was measured by cell proliferation assay after exposure of A549 human lung adenocarcinoma cells and MDA-MB-231 cells to different doses of the compound for 72 hours (FIG. 6A). A dose-dependent reduction in cell proliferation up to 50% at 100 μM A12B4C3 was observed. […] While not wishing to be bound by theory, this may be indicative of a maximal level of drug uptake. No effect on cell proliferation was detected after exposure to 1 μM A12B4C3.

[4] = tested on: MDA-MB-231 cells; assay: Cell proliferation (MTS) assay, compound alone; assay type: cell-based, human; conditions: 72 hours
Description: as §2, §3

[5] = target: T3, mouse PNKP (Mus musculus, UniProt Q9JLV6); assay: PiColorLock 3'-phosphatase assay, mouse PNKP; assay type: biochemical; conditions: all concentrations tested (down to 5 μM)
T3 construct: made in house
Description: as §1

[6] = tested on: DNA Polymerase β Dominant Negative (Pol β DN) A549 cells; assay: Synthetic lethality cell proliferation assay; assay type: cell-based, human; conditions: increasing concentrations, 72 hours
[7] = tested on: M059J cells (DNA-PKcs negative); assay type: cell-based, human
[8] = target: T4, aprataxin (APTX) (Homo sapiens, UniProt Q7Z2E3); assay: 3'-DNA phosphatase activity of aprataxin; assay type: biochemical; conditions: 50 μM
T4 construct: made in house; host or cells: E. coli BL21-Gold (DE3), QIAgene expression construct (Qiagen)
Description: Human recombinant aprataxin (APTX) protein with an N-terminal 6× His tag was expressed in BL21-Gold (DE3) E. coli competent cells (Stratagene, La Jolla, Calif.) using the QIAgene expression construct (Qiagen, Mississauga, ON). A single colony of kanamycin resistant E. coli was used to inoculate a 200-ml overnight culture (e.g., about 12 to about 16 hours in Luria-Bertani (LB) media containing 30 μg/ml kanamycin. Four 50-ml fractions of overnight culture were then subcultured into 4×1 L LB without kanamycin. Once the culture reached an optical density of ˜0.6 at 600 nm, protein expression was induced using 0.2 mM isopropyl-1-thio-β-galactopyranoside (Sigma, St Louis, Mo.) at 37° C. for 2 hours. Cells were harvested by centrifugation at 10,000 rpm for 10 minutes at 4° C. and resuspended in 40 ml buffer (50 mM NaH2PO4, 250 mM NaCl, 1 mM PMSF, at pH 7.9). The solution was then stirred on ice for 30 minutes in the presence of 30 mg lysozyme and 4 mg PMSF, 1 μg/ml each of pepstatin and leupeptin. […] His-APTX concentration was then determined using the Bio-Rad Protein assay (Bio-Rad, Mississauga, ON).
It was also tested whether A12B4C3 could inhibit aprataxin, which is another human DNA 3′-phosphatase. For this experiment, the oligonucleotide substrate was incubated with equal quantities of the two enzymes that were purified from bacteria on the same day. […]

T1 sequence (P06855 whole entry): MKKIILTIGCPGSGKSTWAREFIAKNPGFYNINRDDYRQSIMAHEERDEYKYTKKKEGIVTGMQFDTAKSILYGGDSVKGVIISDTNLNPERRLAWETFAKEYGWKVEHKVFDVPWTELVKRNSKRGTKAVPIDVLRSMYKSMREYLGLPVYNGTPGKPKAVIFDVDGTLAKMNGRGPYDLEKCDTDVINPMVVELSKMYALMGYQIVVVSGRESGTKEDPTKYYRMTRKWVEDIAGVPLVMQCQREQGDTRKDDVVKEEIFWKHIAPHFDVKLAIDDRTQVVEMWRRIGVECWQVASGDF
T2 sequence (P36873 whole entry): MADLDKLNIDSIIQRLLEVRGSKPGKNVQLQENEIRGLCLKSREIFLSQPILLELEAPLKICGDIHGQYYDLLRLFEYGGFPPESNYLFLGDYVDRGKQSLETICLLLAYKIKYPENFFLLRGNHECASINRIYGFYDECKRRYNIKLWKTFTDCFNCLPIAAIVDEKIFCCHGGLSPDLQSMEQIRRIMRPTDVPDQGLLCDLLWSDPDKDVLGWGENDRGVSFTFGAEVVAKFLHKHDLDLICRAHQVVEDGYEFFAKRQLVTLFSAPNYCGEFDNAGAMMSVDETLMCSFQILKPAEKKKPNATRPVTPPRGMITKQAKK
T3 sequence (Q9JLV6 whole entry): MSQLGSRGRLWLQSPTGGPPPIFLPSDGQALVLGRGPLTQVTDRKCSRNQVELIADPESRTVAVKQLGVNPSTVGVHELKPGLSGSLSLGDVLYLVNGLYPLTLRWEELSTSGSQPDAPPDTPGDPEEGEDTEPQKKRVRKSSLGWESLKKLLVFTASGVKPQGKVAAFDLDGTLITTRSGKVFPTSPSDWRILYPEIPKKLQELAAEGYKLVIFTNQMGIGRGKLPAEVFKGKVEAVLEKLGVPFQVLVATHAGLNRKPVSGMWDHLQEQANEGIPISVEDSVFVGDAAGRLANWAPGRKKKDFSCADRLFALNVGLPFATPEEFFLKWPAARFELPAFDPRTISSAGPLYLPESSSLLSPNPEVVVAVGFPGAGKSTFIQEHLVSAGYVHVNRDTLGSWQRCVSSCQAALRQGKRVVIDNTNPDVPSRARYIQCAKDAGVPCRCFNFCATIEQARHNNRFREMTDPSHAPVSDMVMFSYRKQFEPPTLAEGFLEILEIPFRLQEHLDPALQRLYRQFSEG
T4 sequence (Q7Z2E3 whole entry): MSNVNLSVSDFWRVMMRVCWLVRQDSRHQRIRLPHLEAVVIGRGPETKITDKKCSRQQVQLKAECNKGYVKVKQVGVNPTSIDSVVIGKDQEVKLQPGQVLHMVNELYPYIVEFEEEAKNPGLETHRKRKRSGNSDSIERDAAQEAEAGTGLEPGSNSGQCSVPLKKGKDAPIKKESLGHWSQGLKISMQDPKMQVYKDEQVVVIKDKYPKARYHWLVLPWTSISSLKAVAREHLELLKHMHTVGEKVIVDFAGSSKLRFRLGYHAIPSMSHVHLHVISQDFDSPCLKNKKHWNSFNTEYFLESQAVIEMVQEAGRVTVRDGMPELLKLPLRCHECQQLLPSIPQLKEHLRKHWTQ

CCCCCCCCCCC(O)C1C=CC2C(=O)N(c3ccccc3)C(=O)C2N1Nc1ccc([N+](=O)[O-])cc1 (centres unmarked) [Compound A12B4C3, 2-(1-hydroxyundecyl)-1-(4-nitrophenylamino)-6-phenyl-6,7a-dihydro-1H-pyrrolo[3,4-b]pyridine-5,7(2H,4aH)-dione]
inhibition of phage T4 PNKP ([1]; 50 μM): failed to inhibit
inhibition at 50 µM ([1]; read-out: inhibition of phage T4 PNKP): ~12.5%
inhibition of PP-1γ [2]: Neither enzyme displayed inhibition; also recorded: no inhibition
effect on cell proliferation ([3]; 1 μM): No effect
reduction in cell proliferation ([3]; 100 μM): up to 50%
effect on cell proliferation ([4]; 1 μM): No effect
reduction in cell proliferation ([4]; 100 μM): up to 50%
inhibition of mouse PNKP [5]: significantly inhibited
cell survival of Pol β DN cells [6]: reduced survival; also recorded: inverse relationship
synthetic lethality in M059J cells [7]: no synthetic lethality is seen
inhibition of aprataxin phosphatase activity [8]: refractory

Source: patent publication US9694073B2, “Small molecule inhibitors of polynucleotide kinase/phosphatase, poly(ADP-ribose) polymerase and uses thereof” (THE GOVERNORS OF THE UNIVERSITY OF ALBERTA, priority 2009, dated 2017)
